Data set [1] in a line: collision cross section (TIMS, N2 drift gas) of the primary ion; higher = larger gas-phase ion size.
Data set [2] in a line: reversed-phase LC retention time (C18, 15 min MeOH gradient); higher = more hydrophobic / later elution.
Where [3] appears, read: ionization mode: ESI+, ion species: [M+H]+.
Where [4] appears, read: ionization mode: ESI-, ion species: [M-H]-.

The compound `CSc1nnc(C(C)(C)C)c(=O)n1N` [Metribuzin] yielded a collision cross section in data set [1] (setting [3]) of 147.77 Å². Also, in data set [2] (setting [3]), the “reversed-phase LC retention time” value was determined as 11.4 min.

In the case of `Cc1ncc([N+](=O)[O-])n1CCO` [Metronidazole], the collision cross section in data set [1] (setting [3]) is on record as 132.43 Å². Moreover, the “reversed-phase LC retention time” value in data set [2] (setting [3]) was 5.53 min.

Regarding `CN(C)c1ccc(C(=O)c2ccc(N(C)C)cc2)cc1` [Michler's ketone], in data set [1] (setting [3]), the collision cross section came to 166.78 Å². The “reversed-phase LC retention time” value in data set [2] (setting [3]) amounted to 14.9 min.

In turn, `Clc1ccc(COC(Cn2ccnc2)c2ccc(Cl)cc2Cl)c(Cl)c1` (stereo unspecified) [Miconazole] gave a collision cross section in data set [1] (setting [3]) of 191.81 Å². Further, the “reversed-phase LC retention time” value in data set [2] (setting [3]) is 15.6 min.

On to `CN1CCN2c3ncccc3Cc3ccccc3C2C1` (stereo unspecified) [Mirtazapine], for which, in data set [1] (setting [3]), the collision cross section is 160.18 Å². Also, in data set [2] (setting [3]), the “reversed-phase LC retention time” value is 9.54 min.

Turning to `C[C@@H]1C[C@H]2[C@@H]3CCC4=CC(=O)C=C[C@]4(C)[C@@]3(Cl)[C@@H](O)C[C@]2(C)[C@@]1(OC(=O)c1ccco1)C(=O)CCl` [Mometasone fuorate], the values for the collision cross section in data set [1] (setting [3]) and in data set [1] (setting [4]) were 217.59 Å² and 214.51 Å², respectively. The results for the “reversed-phase LC retention time” value in data set [2] (setting [3]) and in data set [2] (setting [4]) were 15.2 min and 15.7 min, respectively.

Turning to `CCC1(C2OC(C3OC(O)(CO)C(C)CC3C)CC2C)CCC(C2(C)CCC3(CC(O)C(C)C(C(C)C(OC)C(C)C(=O)O)O3)O2)O1` (stereo unspecified) [Monensin], the collision cross section in data set [1] (setting [4]) worked out at 244.26 Å². In addition, the “reversed-phase LC retention time” value in data set [2] (setting [4]) was found to be 17.5 min.

As for `CC(C)COC(=O)c1ccccc1C(=O)O` [Mono-iso-butyl-phthalate], in data set [1] (setting [4]), the collision cross section was found to be 151.15 Å². Moreover, the “reversed-phase LC retention time” value in data set [2] (setting [4]) turned out to be 10.2 min.

With `O=C(O)c1ccccc1C(=O)OCc1ccccc1` [Monobenzyl phthalate], the collision cross section is 155.89 Å² in data set [1] (setting [3]) and 159.96 Å² in data set [1] (setting [4]). Also, the “reversed-phase LC retention time” value came out at 17.1 min in data set [2] (setting [3]) and 10.7 min in data set [2] (setting [4]).

Regarding `CC(C)(O)c1ccccc1CCC(SCC1(CC(=O)O)CC1)c1cccc(C=Cc2ccc3ccc(Cl)cc3n2)c1` (stereo unspecified) [Montelukast], the collision cross section in data set [1] (setting [3]) was 243.08 Å²; in data set [1] (setting [4]), 244.69 Å². Moreover, the “reversed-phase LC retention time” value stood at 17.7 min in data set [2] (setting [3]) and 17 min in data set [2] (setting [4]).

In data set [1] (setting [3]), `CCCCC(C#N)(Cn1cncn1)c1ccc(Cl)cc1` (stereo unspecified) [Myclobutanil] gave a collision cross section of 175 Å². Moreover, in data set [2] (setting [3]), the “reversed-phase LC retention time” value turned out to be 14.5 min.

Consider `COc1c(C)c2c(c(O)c1C/C=C(\C)CCC(=O)O)C(=O)OC2` [Mycophenolic acid], for which the collision cross section in data set [1] (setting [3]) amounted to 169.04 Å²; in data set [1] (setting [4]), 175.76 Å². The “reversed-phase LC retention time” value in data set [2] (setting [3]) is 13.4 min; in data set [2] (setting [4]), 11.3 min.

For `CC(C)(C)CC(C)(C)c1ccc(Nc2ccc(C(C)(C)CC(C)(C)C)cc2)cc1` [N,N-Bis(4-tert-octylphenyl)amine], in data set [1] (setting [3]), the collision cross section is reported as 220.04 Å². The “reversed-phase LC retention time” value in data set [2] (setting [3]) was determined as 20.2 min.

On to `CCCCN(C=O)CCCC` [N,N-Di-n-butylformamide], for which the collision cross section in data set [1] (setting [3]) turned out to be 141.17 Å². Further, the “reversed-phase LC retention time” value in data set [2] (setting [3]) is 13.5 min.

Turning to `CCCCCCCCCC(=O)N(C)C` [N,N-Dimethyldecan-1-amide], the collision cross section in data set [1] (setting [3]) is given as 159.08 Å². For the same compound, the “reversed-phase LC retention time” value in data set [2] (setting [3]) was found to be 16.1 min.

Compound `CCCCCCCCCCN(C)C` [N,N-Dimethyldecylamine] displayed a collision cross section in data set [1] (setting [3]) of 158.65 Å². The “reversed-phase LC retention time” value in data set [2] (setting [3]) is 13.7 min.

`CCCCCCCCCCCC[N+](C)(C)[O-]` [N,N-Dimethyldodecylamine N-oxide] had a collision cross section in data set [1] (setting [3]) of 175.77 Å². In addition, in data set [2] (setting [3]), the “reversed-phase LC retention time” value amounted to 15.6 min.

Consider `CCCCCCCCCCCCN(C)C` [N,N-Dimethyldodecylamine], for which the collision cross section in data set [1] (setting [3]) was found to be 169.68 Å². For the same compound, the “reversed-phase LC retention time” value in data set [2] (setting [3]) came out at 15.4 min.

The compound `CCCCCCCCCCCCCC[N+](C)(C)[O-]` [N,N-Dimethyltetradecylamine-N-oxide] came in with a collision cross section in data set [1] (setting [3]) of 184.89 Å². Further, the “reversed-phase LC retention time” value in data set [2] (setting [3]) was 16.8 min.

For `CCCCCCCCCCCCCCN(C)C` [N,N-Dimethyltetradecylamine], the collision cross section in data set [1] (setting [3]) came to 179.2 Å². For the same compound, the “reversed-phase LC retention time” value in data set [2] (setting [3]) turned out to be 16.6 min.

As for `C=C(C)C(=O)NCCCN(C)C` [N-(3-Dimethylamino)propyl)methacrylamide], the collision cross section in data set [1] (setting [3]) amounted to 136.2 Å². The “reversed-phase LC retention time” value in data set [2] (setting [3]) turned out to be 3.22 min.

Regarding `CC(=O)Nc1c(C)n(C)n(-c2ccccc2)c1=O` [N-Acetyl-4-aminoantipyrine], the collision cross section in data set [1] (setting [3]) came to 154.74 Å². Besides, in data set [2] (setting [3]), the “reversed-phase LC retention time” value came to 7.85 min.

Regarding `CCCCNS(=O)(=O)c1ccccc1` [N-Butylbenzenesulfonamide], the collision cross section in data set [1] (setting [4]) was found to be 148.3 Å². The “reversed-phase LC retention time” value in data set [2] (setting [4]) turned out to be 12.8 min.

For the compound `c1ccc2sc(NC3CCCCC3)nc2c1` [N-Cyclohexyl-2-benzothiazole-amine], the collision cross section turned out to be 155.21 Å² in data set [1] (setting [3]) and 157 Å² in data set [1] (setting [4]). The figures for the “reversed-phase LC retention time” value in data set [2] (setting [3]) and in data set [2] (setting [4]) were 14.1 min and 15.9 min, respectively.

In data set [1] (setting [3]), `CCNC(=O)c1cccc(C)c1` [N-Ethyl-3-methylbenzamide] showed a collision cross section of 135.66 Å². For the same compound, the “reversed-phase LC retention time” value in data set [2] (setting [3]) turned out to be 10.7 min.

`CCNS(=O)(=O)c1ccccc1C` [N-Ethyl-o-toluenesulfonamide]: the collision cross section in data set [1] (setting [4]) is listed as 143.19 Å². In data set [2] (setting [4]), the “reversed-phase LC retention time” value is 11.5 min.

In the case of `Cc1c(NC=O)c(=O)n(-c2ccccc2)n1C` [N-Formyl-4-aminoantipyrine], the collision cross section in data set [1] (setting [3]) was determined as 149.16 Å². Besides, in data set [2] (setting [3]), the “reversed-phase LC retention time” value was 7.74 min.

Take `CCCCCCCCCCCC(=O)NCCO` [N-Lauroylethanolamine]: in data set [1] (setting [3]), the collision cross section is listed as 175.51 Å². Moreover, the “reversed-phase LC retention time” value in data set [2] (setting [3]) is 16.4 min.
